{"source": "ChEMBL document CHEMBL2074095", "about": "“Molecular cloning of PEPT 2, a new member of the H+/peptide cotransporter family, from human kidney” (Biochim Biophys Acta, 1995)", "format_in_all_cases": "functional, cell-based", "design_in_all_cases": "scale not given: the % may be the effect or the level left", "key": {"[1]": {"target": "T1, Solute carrier family 15 member 2 (Homo sapiens) (UniProt Q16348)", "T1 sequence (whole entry)": "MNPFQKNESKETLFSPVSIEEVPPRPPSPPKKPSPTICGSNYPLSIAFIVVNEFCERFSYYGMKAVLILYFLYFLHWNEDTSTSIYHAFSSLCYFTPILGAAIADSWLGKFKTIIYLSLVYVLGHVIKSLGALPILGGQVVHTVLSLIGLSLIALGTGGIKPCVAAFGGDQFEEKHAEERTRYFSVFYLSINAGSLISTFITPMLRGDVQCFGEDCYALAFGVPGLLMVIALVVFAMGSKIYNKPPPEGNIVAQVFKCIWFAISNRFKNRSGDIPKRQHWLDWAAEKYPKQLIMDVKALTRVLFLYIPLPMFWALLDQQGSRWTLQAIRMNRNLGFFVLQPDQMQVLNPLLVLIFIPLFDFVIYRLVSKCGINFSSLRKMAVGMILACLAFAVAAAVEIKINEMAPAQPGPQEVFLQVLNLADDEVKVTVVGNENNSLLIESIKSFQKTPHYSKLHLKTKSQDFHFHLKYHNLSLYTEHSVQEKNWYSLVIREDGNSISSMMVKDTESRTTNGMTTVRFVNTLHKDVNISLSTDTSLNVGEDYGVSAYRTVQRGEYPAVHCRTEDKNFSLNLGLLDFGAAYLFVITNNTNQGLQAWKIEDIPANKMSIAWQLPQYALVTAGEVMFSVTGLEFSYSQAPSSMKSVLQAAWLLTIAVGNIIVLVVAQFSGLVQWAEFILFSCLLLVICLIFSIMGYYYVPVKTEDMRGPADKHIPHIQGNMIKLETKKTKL", "assay": "TP_TRANSPORTER: inhibition of Gly-Sar uptake (Gly-Sar: 30 uM, Cephadroxil: 10000 uM) in PEPT2-expressing HeLa cells"}, "[2]": {"target": "T1, Solute carrier family 15 member 2 (Homo sapiens)", "assay": "TP_TRANSPORTER: inhibition of Gly-Sar uptake (Gly-Sar: 30 uM, Cephalexin: 10000 uM) in PEPT2-expressing HeLa cells"}, "[3]": {"target": "T1, Solute carrier family 15 member 2 (Homo sapiens)", "assay": "TP_TRANSPORTER: inhibition of Gly-Sar uptake (Gly-Sar: 30 uM, Ala-Gly-Pro: 10000 uM) in PEPT2-expressing HeLa cells"}, "[4]": {"target": "T1, Solute carrier family 15 member 2 (Homo sapiens)", "assay": "TP_TRANSPORTER: inhibition of Gly-Sar uptake (Gly-Sar: 30 uM, Gly-Phe: 10000 uM) in PEPT2-expressing HeLa cells"}}, "note": "Residues, ends and D or L forms follow the SMILES beside them.", "data": [{"compound": "CC1=C(C(=O)O)N2C(=O)[C@@H](NC(=O)[C@H](N)c3ccc(O)cc3)[C@H]2SC1", "values": [{"measurement": "Activity", "setting": "[1]", "value": 0, "unit": "%"}]}, {"compound": "CC1=C(C(=O)O)N2C(=O)[C@@H](NC(=O)[C@H](N)c3ccccc3)[C@H]2SC1", "values": [{"measurement": "Activity", "setting": "[2]", "value": 0, "unit": "%"}]}, {"compound": "C[C@H](N)C(=O)NCC(=O)N1CCC[C@H]1C(=O)O", "note": "(H-Ala-Gly-Pro-OH)", "values": [{"measurement": "Activity", "setting": "[3]", "value": 0, "unit": "%"}]}, {"compound": "NCC(=O)N[C@@H](Cc1ccccc1)C(=O)O", "note": "(H-Gly-Phe-OH)", "values": [{"measurement": "Activity", "setting": "[4]", "value": 0, "unit": "%"}]}]}
